Measured values taken from patent publication US20050037033A1, “Microbicidal compositions and methods and use” (priority 2003, published 2005).
Where two headings read alike, the source gives them in different places.

Tests used:
Assay type in all cases: cell-based
HIV-IRF = assay: PV-L assay (virus mixed with compound, then cells, no washing); details: Human immunodeficiency virus 1, PM1, Series 1, PV-L: HIV-IRF mixed with compound 1 hour, then PM-1 cells, 8 days, reverse transcriptase activity, read-out: 50% Effective Concentrations (IC50)
Description: PV-L assay: Immobilized virus (HIV-IRF; 10^3 TCID50) was mixed with compound for 1 hour at 37° C. before addition of indicator T cells (PM-1; 10^5/well) and incubated for 8 days (no washing).
In each of the assays above, viral replication was monitored after 8 days by measuring reverse transcriptase activity.

[1] = system: HIV-1 infected SupTi cells (strain IIIB); assay: Cell to cell transmission assay (CTC); details: Human immunodeficiency virus 1, IIIB, Series 2, P4-R5 cells, 2 hour incubation, read-out: 50% Effective Concentrations (IC50)
Description: Cell to cell transmission assay (CTC): HIV-1 infected SupTi cells (strain IIIB), killed prior to exposure, were incubated with compound and P4-R5 cells for 2 hours at 37° C., followed by washing and 48 hour incubation.

[2] = system: N. gonorrheae, strain ms11a; assay: Neisseria gonorrhea inhibition assay; details: gonococcal agar, overnight, colonies counted
Description: Compound was incorporated into gonococcal agar, the agar/agent mixture was poured on culture dishes and inoculated with N. gonorrheae, strain ms11a (10 μl of each dilution: 10^−1 to 10^−5 of a starting 0.5 Mcfarland solution which is equal to 1.5×10^8 colony forming units (cfu)/ml). The plates were incubated overnight (20-22 hours) and the colonies counted.

[3] = system: C. trachomatis Serovar E elementary bodies; assay: Chlamydia trachomatis inhibition assay
Description: C. trachomatis Serovar E elementary bodies ([…]; 10^4 IFU) were incubated for 4 hours on ice with compound, the mixture was inoculated into HeLa cell monolayers, and incubated for 1 hour. The inoculum was removed, the medium changed and the cells incubated overnight (20-22 hours). The cells were removed, fixed, permeabilized, and the infected cells detected by fluorescently tagged antibody and flow cytometry.

C. albicans = assay: Aerobe inhibition assay; details: Candida albicans; 2 strains; read-out: Minimum Inhibitory Concentrations (MICs)
Description: (§1) The aerobic organisms were suspended into saline to the turbidity of the 0.5 McFarland standard, diluted 1:10, pipetted into the wells of the Steers replicator head, and stamped onto the Mueller Hinton agar plates containing the serial dilutions of the antimicrobials.
(§2) The anaerobes were incubated in an anaerobic chamber at 37° C. for 2 days; aerobes were incubated in ambient air at 36° C. for 20h.

E. coli = assay: Aerobe inhibition assay; details: 2 strains
Description: as §1, §2

Enterococcus faecalis = assay: Aerobe inhibition assay; details: 1 strain, read-out: Minimum Inhibitory Concentrations (MICs)
Description: as §1, §2

Enterococcus faecium = assay: Aerobe inhibition assay; details: 1 strain, read-out: Minimum Inhibitory Concentrations (MICs)
Description: as §1, §2

K1 pneumoniae = assay: Aerobe inhibition assay; details: 2 strains
Description: as §1, §2

Listeria monocytogenes = assay: Aerobe inhibition assay; details: 2 strains, read-out: Minimum Inhibitory Concentrations (MICs)
Description: as §1, §2

Pseudo aerug = assay: Aerobe inhibition assay; details: 1 strain, read-out: Minimum Inhibitory Concentrations (MICs)
Description: as §1, §2

Pseudo fluorescens = assay: Aerobe inhibition assay; details: 1 strain, read-out: Minimum Inhibitory Concentrations (MICs)
Description: as §1, §2

Strep agalactiae = assay: Aerobe inhibition assay; details: 2 strains
Description: as §1, §2

Strep pyogenes = assay: Aerobe inhibition assay; details: 2 strains, read-out: Minimum Inhibitory Concentrations (MICs)
Description: as §1, §2

Eubact lentum = assay: Anaerobe inhibition assay; details: 2 strains, read-out: Minimum Inhibitory Concentrations (MICs)
Fuso. nucleatum = assay: Anaerobe inhibition assay; details: Fusobacterium nucleatum, 2 strains, read-out: Minimum Inhibitory Concentrations (MICs)
Peptostrep tetradius = assay: Anaerobe inhibition assay; details: 1 strain, read-out: Minimum Inhibitory Concentrations (MICs)
Porphyromonas levii = assay: Anaerobe inhibition assay; details: 2 strains, read-out: Minimum Inhibitory Concentrations (MICs)
Prevotella intermedia = assay: Anaerobe inhibition assay; details: 2 strains, read-out: Minimum Inhibitory Concentrations (MICs)
Cytotoxicity assay = assay: Cytotoxicity assay
Description: The cells listed in Table 4 were incubated for the indicated period of time with different concentrations of ciclopiroxolamine and cell viability was measured by the 3-(4,5-dimethylthiazol-2-yl)-2,5-diphenyltetrazolium bromide (MTT) assay or by treatment with propidium iodide and fluorescence. Percent viability was calculated with respect to the viability of mock-exposed cells (cells incubated without compounds).
In the MTT assay, the effect of each agent on cell viability was determined using an assay in which dehydrogenases in viable cells cleave the compound 3-(4,5-dimethylthiazol-2-yl)-2,5-diphenyltetrazolium bromide (MTT), yielding a purple product (formazan) which can be measured spectrophotometrically (Pauwels et al., 1988). Cells were seeded into 96 well plates at a density of 3×10^4 cells/well 24 hours prior to introduction of the microbicides. Agents were diluted in as previously indicated. Agents were added to triplicate wells in half-log serial dilutions. Cells were incubated in the absence or presence of each agent at 37° C. under 5% CO2 and 90% humidity for 2 hours. At the conclusion of each experiment, cells were washed, replenished with fresh medium and incubated with MTT (250 μl/well) for 2 hours at 37° C. Following removal of the medium (by aspiration), intracellular formazan crystals were solubilized with 10% Triton X-100 in acidified isopropanol. The resulting solutions were assayed spectrophotometrically at 570 nm and corrected for non-specific absorption at 690 nm. In this assay, measured absorbance is proportional to the viable cell number, and inversely proportional to the degree of cytotoxicity.

spermatozoa = assay: Sperm immobilization assay
Description: To assess sperm-immobilizing activity, compounds were incubated with sperm for 30 seconds in two fold serial dilutions. Those dilutions that immobilized all screened spermatozoa were further diluted several times in buffer and incubated at 37° C., 5% CO2, for 1 h, to verify any possible recovery of motility. Only those dilutions (compound concentrations) that immobilized all spermatozoa with no recovery of motility were considered “positive” and used to calculate the compound's minimum effective concentration (MEC).

[4] = read-out: Minimum Inhibitory Concentrations (MICs)

`Cc1cc(C2CCCCC2)n(O)c(=O)c1.NCCO` [CO, 6-Cyclohexyl-1-hydroxy-4-methyl-2-(1H)-pyridone ethanolamine salt] showed an IC50 (HIV-IRF) of 1.46 µg/mL, an IC50 [1] of 97.4 µg/mL and an IC50 [2] of 1 µg/mL. The IC50 [3] was 1600 µg/mL, the IC50 ([3]; HeLa cell monolayers, flow cytometry) was 1630 µg/mL and the MIC (C. albicans) was 20 µg/mL. The “Minimum Inhibitory Concentrations (MICs)” value (E. coli) was 80 µg/mL, the MIC (E. coli; Escherichia coli, read-out: Minimum Inhibitory Concentrations (MICs)) was 40 µg/mL and the MIC (Enterococcus faecalis) was 80 µg/mL. For the same molecule, the MIC (Enterococcus faecium) was 40 µg/mL, the “Minimum Inhibitory Concentrations (MICs)” value (K1 pneumoniae) was 80 µg/mL and the MIC (K1 pneumoniae; [4]) was 40 µg/mL. For the same molecule, the MIC (Listeria monocytogenes) was 40 µg/mL, the MIC (Pseudo aerug) was 80 µg/mL and the MIC (Pseudo fluorescens) was 160 µg/mL. The “Minimum Inhibitory Concentrations (MICs)” value (Strep agalactiae) was 160 µg/mL, the MIC (Strep agalactiae; [4]) was 80 µg/mL and the MIC (Strep pyogenes) was 80 µg/mL. For the same molecule, the MIC (Eubact lentum) was 40 µg/mL, the MIC (Fuso. nucleatum) was 40 µg/mL and the MIC (Peptostrep tetradius) was 40 µg/mL. For the same molecule, the MIC (Porphyromonas levii) was 40 µg/mL, the MIC (Prevotella intermedia) was 40 µg/mL and the CC50 at 2 h (Cytotoxicity assay; African green monkey, Vero cells, Series 4, 2 hour incubation) was greater than 200 µg/mL. The CC50 at 2 h (Cytotoxicity assay; human, P4-R5 cells, Series 2, P4-R5, 2 hour incubation, 100 μg/ml highest conc tested) was greater than 100 µg/mL, the CC50 at 2 h (Cytotoxicity assay; human, VK-2/E6E7 cells (vaginal epithelium cell line), Series 2, VK-2/E6E7, 2 hour incubation) was 100 µg/mL and the “cytotoxicity towards spermatozoa” value (spermatozoa) was “very little cytotoxicity towards spermatozoa”. For the same molecule, the “Sperm immobilization activity, MEC (minimum effective concentration)” value (spermatozoa; 30 seconds incubation with sperm) was “MEC: 1,200-8,800 μg/ml”.
